According to patent publication US20240368163A1, “COMPOUNDS AND METHODS FOR MODULATING SPLICING” (REMIX THERAPEUTICS INC., priority 2021, published 2024):
Read-outs that look alike come from different tables or passages of the source.

Legend:
Type in all cases: cell-based, human
[1] = system: HTT; assay: HiBiT protein abundance assay, HTT; details: Homo sapiens, K562, 24 h, modified K562 cells
Method in brief: (§1)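 HiBiT-tagged endogenous targets in K562 cells treated 24 h at 37° C. with 10-point 3-fold dilutions (top 10 μM, DMSO ≤0.25%). Luminescence read after lytic LgBiT detection; response normalised to unmodified-cell and DMSO controls, IC50 interpolated at 50% from four-parameter logistic fit.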

[2] = system: Target C; assay: Splicing RT-qPCR panel, Target C canonical junction (CJ) mRNA; details: Homo sapiens, read-out: Target C IC50 (decrease in CJ mRNA levels)
Method in brief: (§2)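 Splicing switch read by one-step RT-qPCR of canonical and alternative exon junctions, housekeeper-normalized (GAPDH/GUSB/PPIA), 2^(−ΔΔCt) vs DMSO as percent response. Cells (A673 or K562) dosed 24 h, 11 points 3-fold from 10 uM, DMSO ≤0.25%.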

[3] = system: MYB; assay: HiBiT protein abundance assay, MYB; details: Homo sapiens, K562, 24 h, modified K562 cells
Method in brief: as §1

[4] = system: SMN2; assay: Splicing RT-qPCR panel, SMN2 canonical junction (CJ) mRNA; details: Homo sapiens, read-out: SMN2 IC50 (decrease in CJ mRNA levels)
Method in brief: as §2

[5] = system: MYB; assay: Splicing RT-qPCR assay, MYB mRNA canonical junction (CJ) and alternative junction (AJ); details: Homo sapiens; for AC50: increase in AJ mRNA
Method in brief: as §2

[6] = system: Target C; assay: HiBiT protein abundance assay, Target C; details: Homo sapiens, K562, 24 h, modified K562 cells
Method in brief: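 HiBiT knock-in K562-derived cells seeded at 10000/well and treated with 10-point 3-fold dilutions (top final 10 μM, ≤0.25% DMSO) for 24 h at 37 °C. Lytic HiBiT luminescence normalised to unmodified-cell and DMSO controls; IC50 from 4-parameter fit at 50% abundance.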

[7] = system: HTT; assay: Splicing RT-qPCR assay, HTT mRNA canonical junction (CJ) and alternative junction (AJ); details: Homo sapiens; for AC50: increase in AJ mRNA
Method in brief: as §2

[8] = gene panel, CJ qPCR, protocol of Example 142
[9] = gene panel, CJ qPCR, protocol of Example 142, read-out: MYB IC50 (decrease in CJ mRNA levels)
[10] = gene panel, CJ qPCR, protocol of Example 142, read-out: HTT IC50 (decrease in CJ mRNA levels)
[11] = RT-qPCR panel, canonical junction mRNA, compound concentration having 50% response in CJ decrease
[12] = 24 h, decrease in CJ mRNA, A673 or K562 cells, 24 hours treatment, RT-qPCR, read-out: MYB CJ IC50
[13] = 24 h, A673 or K562 cells, 24 hours treatment, RT-qPCR
[14] = RT-qPCR panel, canonical junction mRNA, compound concentration having 50% response in CJ decrease, read-out: MYB IC50 (decrease in CJ mRNA levels)
[15] = 24 h, decrease in CJ mRNA, A673 or K562 cells, 24 hours treatment, RT-qPCR, read-out: HTT CJ IC50
[16] = RT-qPCR panel, canonical junction mRNA, compound concentration having 50% response in CJ decrease, read-out: HTT IC50 (decrease in CJ mRNA levels)

Structure (SMILES) | IC50 ([1]; Table 13B) [µM] | IC50 [2, 8] [µM] | IC50 ([3]; Table 13B) [µM] | IC50 [4, 8] [µM] | IC50 [5, 9] [µM] | IC50 ([6]; Table 13B) [µM] | IC50 [7, 10] [µM] | IC50 ([1]; Table 13A) [µM] | IC50 [2, 11] [µM] | IC50 ([3]; Table 13A) [µM] | IC50 [4, 11] [µM] | IC50 [5, 12] [µM] | IC50 [5, 14] [µM] | IC50 ([6]; Table 13A) [µM] | IC50 [7, 15] [µM] | IC50 [7, 16] [µM] | AC50 [5, 13] [µM] | AC50 [7, 13] [µM]
CN(C)c1nc(-c2ccc(N(C)[C@@H]3C[C@H]4CC[C@@H](C3)N4)nn2)ccc1-c1cn[nH]c1 [Compound 938] | 1 to 10 | 1 to 10 | 1 to 10 | 1 to 10 | > 10 | 1 to 10 | 1 to 10 |  |  |  |  |  |  |  |  |  |  | 
CN(c1ccc(-c2ccc(-n3cccn3)c3cn[nH]c23)nn1)C1CCNCC1 [Compound 264] |  |  |  |  |  |  |  | 1 to 10 | > 10 | 1 to 10 | 1 to 10 | > 10 | > 10 | 1 to 10 | > 10 | > 10 | > 10 | > 10
c1nc2c(-c3cn[nH]c3)ccc(-c3ccc(N4CCC5(CCNCC5)C4)nn3)c2s1 [Compound 190] |  |  |  |  |  |  |  | > 10 | > 10 | > 10 | > 10 | > 10 | > 10 | > 10 | > 10 | > 10 | > 10 | > 10
CN(c1ncc(-c2ccc(-n3cccn3)c3[nH]ncc23)nn1)[C@@H]1C[C@H]2CCC[C@@H](C1)N2C [Compound 575] |  |  |  |  |  |  |  | 0.1 to 1 | 1 to 10 | 1 to 10 | 1 to 10 |  | > 10 | 1 to 10 |  | 0.1 to 1 |  | 
CN(c1ccc(-c2ccc(-c3cn[nH]c3)c3cn[nH]c23)nn1)[C@@H]1C[C@H]2CCC[C@@H](C1)N2 [Compound 295] |  |  |  |  |  |  |  | < 0.1 | < 0.1 | < 0.1 | < 0.1 | < 0.1 | < 0.1 | < 0.1 |  | < 0.1 | 0.1 to 1 | < 0.1

Continued, in another order:

IC50 ([1]; Table 13B) [µM] | IC50 [2, 8] [µM] | IC50 ([3]; Table 13B) [µM] | IC50 [4, 8] [µM] | IC50 [5, 9] [µM] | IC50 ([6]; Table 13B) [µM] | IC50 [7, 10] [µM] | IC50 ([1]; Table 13A) [µM] | IC50 [2, 11] [µM] | IC50 ([3]; Table 13A) [µM] | IC50 [4, 11] [µM] | IC50 [5, 12] [µM] | IC50 [5, 14] [µM] | IC50 ([6]; Table 13A) [µM] | IC50 [7, 15] [µM] | IC50 [7, 16] [µM] | Structure (SMILES) | AC50 [5, 13] [µM] | AC50 [7, 13] [µM]
 |  |  |  |  |  |  | > 10 | > 10 | > 10 | 1 to 10 | > 10 | > 10 | > 10 | 1 to 10 | 1 to 10 | CNCC1CCN(c2ncc(-c3ccc(-c4cn[nH]c4)c4ncsc34)nn2)C1 (stereo not shown) [Compound 411, N-methyl-1-[1-[6-[4-(1H-pyrazol-4-yl)-1,3-benzothiazol-7-yl]-1,2,4-triazin-3-yl]pyrroledin-3-yl]metha-namine] | > 10 | > 10
 |  |  |  |  |  |  | 1 to 10 | > 10 | 1 to 10 | 0.1 to 1 | > 10 | > 10 | > 10 | > 10 | > 10 | c1n[nH]cc1-c1ccc(-c2ccc(N3CCC(NC4CC4)C3)nn2)c2[nH]ncc12 (stereo not shown) [Compound 306] | > 10 | 1 to 10
0.1 to 1 | 1 to 10 | 1 to 10 | 0.1 to 1 | 1 to 10 | 0.1 to 1 | 0.1 to 1 |  |  |  |  |  |  |  |  |  | COc1nc(-c2ccc(OC3CC(C)(C)NC(C)(C)C3)nn2)ccc1-c1cnn(C)n1 [Compound 926] |  | 
 |  |  |  |  |  |  | > 10 | > 10 | > 10 | > 10 | > 10 | > 10 | > 10 | > 10 | > 10 | c1nc2c(-c3cn[nH]c3)ccc(-c3ccc(NC4CNC4)nn3)c2s1 [Compound 196] | > 10 | > 10
 |  |  |  |  |  |  | 0.1 to 1 | 1 to 10 | 1 to 10 | 1 to 10 |  | > 10 | 1 to 10 |  | 0.1 to 1 | C[C@H]1CN(c2ncc(-c3ccc(-c4cn[nH]c4)c4ncsc34)nn2)C[C@@H](C2CC2)N1 [Compound 568] |  | 
> 10 | > 10 | > 10 | 1 to 10 | > 10 | > 10 | > 10 |  |  |  |  |  |  |  |  |  | COc1nc(-c2ccc(NC3CCNCC3)nn2)ccc1-n1cccn1 [Compound 941] |  | 
